Here are results for 27 compounds from US20100292214A1, “Compounds with Antiparasitic Activity, Applications thereof to the Treatment of Infectious Diseases Caused by Apicomplexans” (commissariat a l'Energie Atomique, priority 2007, published 2010).

For assay [1], the system named is Toxoplasma gondii RH-β1 strain. The assay is described as follows: microbe, parasite or virus in culture. The assay is classed as cell-based. The note with it: Toxoplasma gondii, read-out: IC50 assessed on Toxoplama Gondii.
The test system of assay [2] is asynchronous 3D7 chloroquine-sensitive P. falciparum infected red blood cells. Put plainly: Labeled hypoxanthine incorporation assay (in vitro anti-malarial activity). The note with it: Plasmodium falciparum, 3D7, Erythrocyte, read-out: IC50 assessed on Plasmodium Falciparum. Type of assay: cell-based.
The mark [3] stands for this setting: 3D7 chloroquine-sensitive strain, infected RBC, 48 h contact, [3H]-hypoxanthine incorporation, two independent experiments in duplicates.

pIC50: −log10 of the molar value. Read-outs that look alike come from different tables or passages of the source.

As to `C[C@@H](COC(=O)N1CCC(n2c(=O)n(Cc3ccccc3)c3ccccc32)CC1)N(Cc1ccccc1)Cc1ccccc1` [Compound 71, (S)-2-(dibenzylamino)propyl 4-(1-benzyl-1,2-dihydro-2-oxobenzo[d]imidazol-3-yl)piperidine-1-carboxylate], the values for the pIC50 in assay [1] and in assay [2] (setting [3]) were 5.75 and 6.11, respectively.
As to `C[C@@H](COC(=O)N1CCC(n2c(=O)n(CC3CCCCC3)c3ccccc32)CC1)N(Cc1ccccc1)Cc1ccccc1` [Compound 72, (S)-2-(dibenzylamino)propyl 4-(1-(cyclohexylmethyl)-1,2-dihydro-2-oxobenzo[d]imidazol-3-yl)piperidine-1-carboxylate], the pIC50 (usually the negative decadic logarithm of the IC50, by convention in mol/L) is 5.80 in assay [1] and 5.99 in assay [2] (setting [3]).
The matching figures for `C[C@@H](COC(=O)N1CCC(n2c(=O)n(CCNC(=O)OC(C)(C)C)c3ccccc32)CC1)N(Cc1ccccc1)Cc1ccccc1` [Compound 73, (S)-2-(dibenzylamino)propyl 4-(3-(2-tert-butyloxycarbonylaminoethyl)-2-oxo-2,3-dihydro-1H-benzo[d]imidazol-1-yl)piperidine-1-carboxylate]: 5.52 and 5.85.
On the same counts, the results for `CC(C)(C)OC(=O)NCCn1c(=O)n(C2CCN(C(=O)OC[C@H](Cc3ccccc3)N(Cc3ccccc3)Cc3ccccc3)CC2)c2ccccc21` [Compound 74, (S)-2-(dibenzylamino)-3-phenylpropyl 4-(3-(2-tert-butyloxycarbonylaminoethyl)-2-oxo-2,3-dihydro-1H-benzo[d]imidazol-1-yl)piperidine-1-carboxylate] are 5.49 and 6.42.
Consider `C[C@@H](COC(=O)N1CCC(n2c(=O)n(-c3ccccc3)c3ccccc32)CC1)N(Cc1ccccc1)Cc1ccccc1` [Compound 75, (S)-2-(dibenzylamino)propyl 4-(1,2-dihydro-2-oxo-1-phenylbenzo[d]imidazol-3-yl)piperidine-1-carboxylate], for which the pIC50 in assay [1] was 5.46; in assay [2] (setting [3]) it was 5.64.
For the compound `O=C(CCCC[C@@H]1SC[C@@H]2NC(=O)N[C@@H]21)NCCn1c(=O)n(C2CCN(C(=O)OC[C@H](Cc3ccccc3)N(Cc3ccccc3)Cc3ccccc3)CC2)c2ccccc21` [Compound 76, (S)-2-(dibenzylamino)-3-phenylpropyl 4-(3-(2 aminoethyl)-2-oxo-2,3-dihydro-1H-benzo[d]imidazol-1-yl)piperidine-1-carboxylate D-biotin amid], the pIC50 in assay [1] is 5.59; in assay [2] (setting [3]) it was 6.32.
The matching figures for `CCOC(=O)CCCn1c(=O)n(C2CCN(C(=O)OC[C@H](C)N(Cc3ccccc3)Cc3ccccc3)CC2)c2ccccc21` [Compound 77, (S)-2-(dibenzylamino)propyl 4-(3-(4-ethoxy-4-oxobutyl)-2-oxo-2,3-dihydro-1H-benzo[d]imidazol-1-yl)piperidine-1-carboxylate]: 5.24 and 6.22.
For `C[C@@H](COC(=O)N1CCC(n2c(=O)n(CCCC(=O)O)c3ccccc32)CC1)N(Cc1ccccc1)Cc1ccccc1` [Compound 78, (S)-4-(3-(1-((2-(dibenzylamino)propoxy)carbonyl)piperidin-4-yl)-2-oxo-2,3-dihydro-1H-benzo[d]imidazol-1-yl)butanoic acid], the results for the pIC50 in assay [1] and in assay [2] (setting [3]) were 5.77 and 5.20, respectively.
As to `C[C@@H](COC(=O)N1CCC(n2c(=O)n3c4c(cccc42)C(=O)CCC3)CC1)N(Cc1ccccc1)Cc1ccccc1` [Compound 79, (S)(1-((2-(dibenzylamino)propoxy)carbonyl)piperidin-4-yl)-5,6-dihydro-imidazo[4,5,1,j,k][1]benzazepine-2,7(1H,4H)-dione], the results for the pIC50 in assay [1] and in assay [2] (setting [3]) were 4.94 and 5.51, respectively.
Regarding `C[C@@H](COC(=O)N1CCC(Nc2ccccc2)CC1)N(Cc1ccccc1)Cc1ccccc1` [Compound 80, (S)-2-(dibenzylamino)propyl 4-(phenylamino)piperidine-1-carboxylate], the pIC50 was 5.02 in assay [1] and 5.47 in assay [2].
Regarding `COc1ccc(NC2CCN(C(=O)OC[C@H](C)N(Cc3ccccc3)Cc3ccccc3)CC2)cc1` [Compound 81, (S)-2-(dibenzylamino)propyl 4-(4-methoxyphenylamino)piperidine-1-carboxylate], the values for the pIC50 in assay [1] and in assay [2] (setting [3]) were 5.00 and 5.07, respectively.
The matching figures for `COc1ccc(NC2CCN(C(=O)OC[C@H](C)N(Cc3ccccc3)Cc3ccccc3)CC2)c(OC)c1` [Compound 82, (S)-2-(dibenzylamino)propyl 4-(2,4-dimethoxyphenylamino)piperidine-1-carboxylate]: 5.14 and 5.62.
Regarding `COc1cc(NC2CCN(C(=O)OC[C@H](C)N(Cc3ccccc3)Cc3ccccc3)CC2)cc(OC)c1OC` [Compound 83, (S)-2-(dibenzylamino)propyl 4-(3,4,5-trimethoxyphenylamino)piperidine-1-carboxylate], the pIC50 in assay [1] is 4.80; in assay [2] (setting [3]), 5.51.
Regarding `C[C@@H](COC(=O)N1CCC(Nc2cccc(F)c2)CC1)N(Cc1ccccc1)Cc1ccccc1` [Compound 84, (S)-2-(dibenzylamino)propyl 4-(3-fluorophenylamino)piperidine-1-carboxylate], the pIC50 was 5.26 in assay [1] and 5.17 in assay [2].
In the case of `C[C@@H](COC(=O)N1CCC(Nc2ccc(I)cc2)CC1)N(Cc1ccccc1)Cc1ccccc1` [Compound 85, (S)-2-(dibenzylamino)propyl 4-(4-iodophenylamino)piperidine-1-carboxylate], the negative logarithm of the IC50 (pIC50) in assay [1] is 5.12; in assay [2], 5.09.
With `C[C@@H](COC(=O)N1CCC(Nc2ccc(Cl)c(Cl)c2)CC1)N(Cc1ccccc1)Cc1ccccc1` [Compound 86, (S)-2-(dibenzylamino)propyl 4-(3,4-dichlorophenylamino)piperidine-1-carboxylate], the pIC50 is 5.43 in assay [1] and 5.14 in assay [2].
In the case of `C[C@@H](COC(=O)N1CCC(Nc2ccccc2N)CC1)N(Cc1ccccc1)Cc1ccccc1` [Compound 87, (S)-2-(dibenzylamino)propyl 4-(2-aminophenylamino)piperidine-1-carboxylate], the pIC50 in assay [1] is 4.89; in assay [2] (setting [3]), 4.99.
For the compound `C[C@@H](COC(=O)N1CCC(N(c2ccccc2)S(=O)(=O)c2ccccc2)CC1)N(Cc1ccccc1)Cc1ccccc1` [Compound 90, (S)-2-(dibenzylamino)propyl 4-(N-phenylphenylsulfonamido)piperidine-1-carboxylate], the pIC50 in assay [1] is 5.76; in assay [2] (setting [3]) it was 6.28.
On to `C[C@@H](CNC(=S)N1CCC(n2c(=O)[nH]c3ccccc32)CC1)N(Cc1ccccc1)Cc1ccccc1` [Compound 91, N-((S)-2-(dibenzylamino)propyl)-4-(1,2-dihydro-2-oxobenzo[d]imidazol-3-yl)piperidine-1-carbothioamide], for which the figures for the pIC50 in assay [1] and in assay [2] (setting [3]) were 5.12 and 5.57, respectively.
`C[C@@H](CNC(=O)N1CCC(n2c(=O)[nH]c3ccccc32)CC1)N(Cc1ccccc1)Cc1ccccc1` [Compound 92, N—((S)-2-(dibenzylamino)propyl)-4-(1,2-dihydro-2-oxobenzo[d]imidazol-3-yl)piperidine-1-carboxamide]: the pIC50 in assay [1] is 4.82; in assay [2] (setting [3]), 5.46.
The matching figures for `C[C@@H](COC(=O)N1CCC(Nc2nc3ccccc3[nH]2)CC1)N(Cc1ccccc1)Cc1ccccc1` [Compound 93, (S)-2-(Dibenzylamino)propyl 4-(1H-benzo[d]imidazol-2-ylamino)piperidine-1-carboxylate]: 6.01 and 6.74.
With `C[C@@H](COC(=O)N1CCC(Nc2nc3ccccc3n2C(=O)OC[C@H](C)N(Cc2ccccc2)Cc2ccccc2)CC1)N(Cc1ccccc1)Cc1ccccc1` [Compound 94, (S)-2-(dibenzylamino)propyl 2-(1-(((S)-2-(dibenzylamino)propoxy)carbonyl)piperidin-4-ylamino)-1H-benzo[d]imidazole-1-carboxylate], the pIC50 in assay [1] is 5.05; in assay [2] (setting [3]), 5.58.
`C[C@@H](CNC(=N)N1CCC(n2c(=O)[nH]c3ccccc32)CC1)N(Cc1ccccc1)Cc1ccccc1` [Compound 95, N—((S)-2-(dibenzylamino)propyl)-4-(1,2-dihydro-2-oxobenzo[d]imidazol-3-yl)piperidine-1-carboxamidine]: the pIC50 in assay [1] was 4.96; in assay [2] (setting [3]), 6.29.
Take `O=C(CCCN(Cc1ccccc1)Cc1ccccc1)N1CCC(n2c(=O)[nH]c3ccccc32)CC1` [Compound 96, 1-[1-(4-Dibenzylamino-butyryl)-piperidin-4-yl]-1,3-dihydrobenzoimidazol-2-one]: the pIC50 is 5.20 in assay [1] and 4.95 in assay [2] (setting [3]).
In the case of `C[C@@H](COC(=O)N1CCC(n2c(=S)[nH]c3ccccc32)CC1)N(Cc1ccccc1)Cc1ccccc1` [Compound 97, (S)-2-(dibenzylamino)propyl 4-(1,2-dihydro-2-thioxobenzo[d]imidazol-3-yl)piperidine-1-carboxylate], the figures for the pIC50 in assay [1] and in assay [2] (setting [3]) were 5.46 and 5.97, respectively.
For `O=C(OCCN(Cc1ccccc1)Cc1ccc([N+](=O)[O-])cc1)N1CCC(n2c(=O)[nH]c3ccccc32)CC1` [Compound 98, 2-(N-(4-nitrobenzyl)-N-benzylamino)ethyl 4-(1,2-dihydro-2-oxobenzo[d]imidazol-3-yl)piperidine-1-carboxylate], the pIC50 is 5.48 in assay [1] and 5.52 in assay [2] (setting [3]).
Regarding `O=C(OCCN(Cc1ccccc1)Cc1ccccc1OCc1ccccc1)N1CCC(n2c(=O)[nH]c3ccccc32)CC1` [Compound 99, 2-(benzyl(2-(benzyloxy)benzyl)amino)ethyl 4-(2-oxo-2,3-dihydro-1H-benzo[d]imidazol-1-yl)piperidine-1-carboxylate], the values for the pIC50 in assay [1] and in assay [2] (setting [3]) were 5.46 and 6.07, respectively.
